Consider six molecules from US20230250095A1, “BENZIMIDAZOLE DERIVATIVES, PREPARATION METHOD THEREFOR AND MEDICAL USE THEREOF” (TUOJIE BIOTECH(SHANGHAI) CO., LTD., priority 2020, published 2023).

The structures appear in SMILES notation.

The target in the assay is T1, hP2X2/3 (Homo sapiens, UniProt P56373+Q9UBL9).
T1 construct: host or cells: 1321N1 cells
T1 sequence (Q9UBL9 1-471): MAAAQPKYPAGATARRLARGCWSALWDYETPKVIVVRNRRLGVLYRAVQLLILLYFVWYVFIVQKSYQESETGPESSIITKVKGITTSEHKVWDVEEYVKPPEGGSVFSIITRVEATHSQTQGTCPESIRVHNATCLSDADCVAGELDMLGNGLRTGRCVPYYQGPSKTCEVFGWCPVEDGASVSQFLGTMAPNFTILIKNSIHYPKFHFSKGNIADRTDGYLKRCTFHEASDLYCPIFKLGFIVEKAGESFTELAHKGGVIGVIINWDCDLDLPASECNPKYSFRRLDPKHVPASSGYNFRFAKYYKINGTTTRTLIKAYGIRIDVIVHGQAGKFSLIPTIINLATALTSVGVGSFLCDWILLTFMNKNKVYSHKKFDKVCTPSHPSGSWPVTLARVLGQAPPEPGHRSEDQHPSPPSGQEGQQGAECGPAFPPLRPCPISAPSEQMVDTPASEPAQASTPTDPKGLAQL
T1 sequence (P56373 1-397): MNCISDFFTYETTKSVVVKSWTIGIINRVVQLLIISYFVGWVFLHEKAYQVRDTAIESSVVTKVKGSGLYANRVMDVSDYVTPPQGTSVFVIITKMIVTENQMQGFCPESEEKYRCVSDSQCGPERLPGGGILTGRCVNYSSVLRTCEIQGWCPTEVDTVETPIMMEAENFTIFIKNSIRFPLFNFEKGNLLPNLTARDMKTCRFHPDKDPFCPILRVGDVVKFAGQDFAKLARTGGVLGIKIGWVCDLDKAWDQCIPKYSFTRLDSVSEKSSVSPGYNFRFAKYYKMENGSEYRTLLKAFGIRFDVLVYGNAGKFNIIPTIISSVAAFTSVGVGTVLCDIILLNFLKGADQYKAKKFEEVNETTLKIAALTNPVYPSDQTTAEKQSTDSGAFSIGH
Briefly: FLIPR calcium flux assay, antagonistic activity against hP2X2/3 receptor. Format: cell-based. As to conditions: 1321N1/hP2X2/3 cells, agonist α,β-meATP 1000 nM. How it is done: The compounds were screened for antagonistic activity against hP2X3 and hP2X2/3 receptors (changes in calcium flux signals represent the effect of the compounds on ion channels) by an FLIPR assay.
1321N1 cells (adherent cells) stably transfected with hP2X3 and hP2X2/3 receptors were digested, centrifuged, resuspended in a plating medium (DMEM+10% DFBS) and counted, adjusted to 2×10^5 cells/mL. The cells were seeded in a 384-well assay plate at 50 μL/well, and incubated in an incubator at 37° C. with 5% CO2 for 16-24 h. Test compounds (20 mM DMSO stock solution) that were 180 times the desired concentration were prepared with DMSO, and added to a 384-well compound plate at 500 nL/well. Then, each well was supplemented with 30 μL of FLIPR buffer (lx HBSS containing 1.26 mM Ca^2++2 mM CaCl2)+20 mM HEPES), and the mixture was shaken for 20-40 min to be mixed well. The agonist α,β-meATP (final concentration of 500 nM for hP2X3 cells and final concentration of 1000 nM for hP2X2/3 cells) that was 3 times the desired concentration was prepared with an FLIPR buffer, and added to another 384-well compound plate at 35 μL/well. The cell plate in which cells had been plated and cultured for 16-24 h was taken out, and the cell supernatant was removed by pipetting. 30 μL of dye (FLIPR® calcium 4 assay kit, diluted with an FLIPR buffer) was added to each well, and the plate was incubated for 1 h. 15 μL of the compound was added to each well containing cells (dosing using an FLIPR instrument), and after 15 min, 22.5 μL of agonist was added to each well and the fluorescent signal was detected (excitation wavelength: 470-495 nm, emission wavelength: 515-575 nm). With the difference between the peak and the trough of the signal taken as the basic data, the data of the highest concentration of the positive drug taken as the 100% inhibition rate, and the data of DMSO taken as the 0% inhibition rate, the inhibition effect curves of the compounds were fitted on the software Graphpad Prism 6 and IC50 values were calculated.

For orientation: IC50 means the concentration that gives 50% inhibition. For `CC(=O)N1CCO[C@@H](Cn2c(-c3c(F)cc(N4CCCC4=O)cc3Cl)nc3cc(C)ccc32)C1` [Compound 4, (S)-1-(4-(1-((4-acetylmorpholin-2-yl)methyl)-5-methyl-1H-benzo[d]imidazol-2-yl)-3-chloro-5-fluorophenyl)pyrrolidin-2-one], the IC50 was determined as 1.93 µM. With `CC(=O)N1CCO[C@@H](Cn2c(-c3c(F)cc(N4CCCC4=O)cc3F)nc3cc(Cl)ccc32)C1` [Compound 10, (S)-1-(4-(1-((4-acetylmorpholin-2-yl)methyl)-5-chloro-1H-benzo[d]imidazol-2-yl)-3,5-difluorophenyl)pyrrolidin-2-one], the IC50 came out at 7.41 µM. On to `COC(=O)N1CCO[C@@H](Cc2c(-c3c(F)cc(N4CCCC4=O)cc3F)nc3cc(C)ccn23)C1` [Compound 9, Methyl (S)-2-((2-(2,6-difluoro-4-(2-carbonylpyrrolidin-1-yl)phenyl)-7-methylimidazo[1,2-a]pyridin-3-yl)methyl)morpholine-4-carboxylate], for which the IC50 was 30.3 µM. With `CC(=O)N1CCOC(Cn2c(-c3c(F)cc(N4CCCC4=O)cc3F)nc3cc(C)ccc32)C1` (stereo in doubt) [Compound 1] the figure was 5.57 µM; with `CC(=O)N1CCO[C@@H](Cn2c(-c3ccc(N4CCCC4=O)cc3Cl)nc3cc(C)ccc32)C1` [Compound 3, (S)-1-(4-(1-((4-acetylmorpholin-2-yl)methyl)-5-methyl-1H-benzo[d]imidazol-2-yl)-3-chlorophenyl)pyrrolidin-2-one], 1.81 µM. In the case of `COC(=O)N1CCOC(Cn2c(-c3c(F)cc(N4CCCC4=O)cc3F)nc3cc(C)ccc32)C1` (stereo not drawn) [Compound 2, Methyl 2-((2-(2,6-difluoro-4-(2-carbonylpyrrolidin-1-yl)phenyl)-5-methyl-1H-benzo[d]imidazol-1-yl)methyl)morpholine-4-carboxylate], the 50% inhibitory concentration (IC50) was 19 µM.
